Test results taken from patent US20260216215A1, “COMPOSITIONS AND METHODS FOR TREATING OR PREVENTING PAIN OR OTHER DISORDERS” (priority 2022, published 2026).

Experiments:
neuropathic pain = conditions: purified compound; thermal and mechanical hyperalgesia and mechanical allodynia; cited from earlier work
menstrual pain = assay: Comparison of VAS scores for CBD only, CBG only, PEA only and combination vaginal suppositories (Example 2); format: in vivo, human; conditions: vaginal suppository; for Magnitude of pain reduction from baseline: VAS points
From the text: Specifically, the formulations were individually/separately administered, with each single formulation being administered on a separate day of the patient's menstrual period.
Comparison of visual analogue pain scores (VAS scores) for CBD only, CBG only, PEA only and CBD+CBG+PEA combinations delivered using vaginal suppositories.

[1] = tested on: inflammation in experimental rat model; conditions: versus Diclofenac (100 mg/kg), p<0.05; cited from earlier work
[2] = cited from earlier work
chemical nociception = conditions: not blocked by naloxone; cited from earlier work

SMILES	Magnitude of pain reduction from baseline (menstrual pain)	Duration of effect (menstrual pain) [h]	Onset of effect (menstrual pain) [min]	VAS at max effect (menstrual pain)	other results
C=C(C)[C@@H]1CCC(C)=C[C@H]1c1c(O)cc(CCCCC)cc1O [CBD 50 mg, Cannabidiol]	2	5	20	5	Relief of neuropathic pain (neuropathic pain): partially relieve neuropathic pain
CCCCCc1cc(O)c(C/C=C(\C)CCC=C(C)C)c(O)c1 [CBG 50 mg, Cannabigerol]	0			8	
COc1cc(CNC(=O)CCCC/C=C/C(C)C)ccc1O [CPF, capsaicin]					Anti-inflammatory effects [1]: comparable to diclofenac
CCCCCCCCCCCCCCCC(=O)NCCO [PEA 250 mg, N-Palmitoylethanolamide]	2	6	30	5	
CC(C)=C1CC[C@@H](C)CC1=O [PUL, (R)-5-Methyl-2-(1-methylethylidine) cyclohexanone]					Miscibility with organic solvents ([2]; ethanol, diethyl ether and chloroform): miscible; Solubility in water ([2]; water): practically insolubile; Chemical nociception in first and second phase of the formalin test (chemical nociception): significantly inhibited
